pIC50, pKd: −log10 of the molar value. “Also recorded” adds a separate entry of the source.
Legend:
CXCR4 (h) = target: T1, CXCR4 (h) (Homo sapiens, UniProt P61073); experiment: CXCR4 (h) cellular antagonist effect, impedance by dielectric spectroscopy, stimulated with 1 nM SDF-1α; assay type: cell-based; conditions: recombinant human CXCR4 in CHO cells, 28° C.
T1 construct: expressed in transfected cells; host or cells: CHO cells
Experimental: FIGS. 4A and 4B show determination of CXCR4 (h) inhibitory effect for, A) BQ-788 and B) BQ-788-B, a specifically deuterated ETRB antagonist (i.e., “Compound 1”). Cellular agonist effect was calculated as a % of control response to a known reference agonist for CXCR4 (h), and cellular antagonist effect was calculated as a % inhibition of control reference agonist response for CXCR4.
Determination of CXCR4 inhibitory effect. The inhibitory effect on CXCR4 (h) was determined for BQ-788 (FIG. 4A), and BQ-788 (FIG. 4B) BQ-788-B (i.e., “Compound 1”). Cellular agonist effect was calculated as a % of control response to a known reference agonist for CXCR4 (h), and cellular antagonist effect was calculated as a % inhibition of control reference agonist response for CXCR4. Recombinant human CXCR4 was expressed in CHO cells, and stimulated with 1 nM SDF-1α and incubated at 28° C. Dielectric spectroscopy was used to measure impedance of the cells.

ETA (h) = target: T2, ETA (h) (Homo sapiens, UniProt P25101); experiment: ETA (h) cellular antagonist effect; assay type: cell-based
T2 sequence (P25101 21-427): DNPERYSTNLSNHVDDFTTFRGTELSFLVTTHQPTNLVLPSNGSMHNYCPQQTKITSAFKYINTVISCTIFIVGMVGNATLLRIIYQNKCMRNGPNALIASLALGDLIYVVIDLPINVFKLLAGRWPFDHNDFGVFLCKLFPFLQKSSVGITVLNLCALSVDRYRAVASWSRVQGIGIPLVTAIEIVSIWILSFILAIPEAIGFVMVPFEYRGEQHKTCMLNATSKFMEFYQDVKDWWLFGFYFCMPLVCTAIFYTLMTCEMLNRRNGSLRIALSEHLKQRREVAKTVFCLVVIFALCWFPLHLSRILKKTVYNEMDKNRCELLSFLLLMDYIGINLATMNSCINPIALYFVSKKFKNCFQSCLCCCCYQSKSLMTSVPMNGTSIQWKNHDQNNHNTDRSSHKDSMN
Experimental: FIGS. 5A and 5B show determination of ETA (h) inhibitory effect for A) BQ-788 and B) BQ-788-B, a specifically deuterated ETRB antagonist. Cellular agonist effect was calculated as a % of control response to a known reference agonist for ETA (h), and cellular antagonist effect was calculated as a % inhibition of control reference agonist response for ETA.
Cellular agonist effect was calculated as a % of control response to a known reference agonist for ETA (h), and cellular antagonist effect was calculated as a % inhibition of control reference agonist response for ETA.

ETB (h) = target: T3, ETB (h) (Homo sapiens, UniProt P24530); experiment: ETB (h) cellular antagonist effect; assay type: cell-based
T3 sequence (P24530 27-442): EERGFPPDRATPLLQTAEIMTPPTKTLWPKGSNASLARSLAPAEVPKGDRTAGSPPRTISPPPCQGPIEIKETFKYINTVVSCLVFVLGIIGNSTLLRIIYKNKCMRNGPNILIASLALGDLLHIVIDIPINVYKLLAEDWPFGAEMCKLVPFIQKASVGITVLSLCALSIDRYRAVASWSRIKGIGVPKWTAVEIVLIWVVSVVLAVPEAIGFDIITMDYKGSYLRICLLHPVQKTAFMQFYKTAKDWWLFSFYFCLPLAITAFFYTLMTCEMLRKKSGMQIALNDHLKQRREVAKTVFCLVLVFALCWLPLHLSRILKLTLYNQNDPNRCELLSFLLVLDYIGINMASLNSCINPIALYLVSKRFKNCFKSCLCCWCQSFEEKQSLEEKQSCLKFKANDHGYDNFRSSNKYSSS
Experimental: (§1) Cellular agonist effect was calculated as a % of control response to a known reference agonist for ETB (h), and cellular antagonist effect was calculated as a % inhibition of control reference agonist response for ETB.
as §1, with “Determination of ETBR inhibitory effect for specifically deuterated ETRB antagonists. […] Cellular” for “Cellular”

ETBR = experiment: Plasma ET-1 ELISA after IV infusion, indirect measure of ETBR engagement; assay type: in vivo; conditions: rats, 250 μg/kg IV infusion
Experimental: Briefly, rats (N=4 animals per timepoint) were administered either BQ-788 or the deuterated form, BQ-788-B at a dose of 250 μg/kg via IV infusion. Plasma samples were collected at various time points and ET-1 ELISA performed. BQ788 and BQ788-B are peptide drugs that are rapidly degraded in plasma and thus drug levels are difficult to detect directly. […] As such, plasma levels of ET-1 are commonly used as an indirect measure of BQ-788 biologic activity.

T1 sequence (P61073 whole entry): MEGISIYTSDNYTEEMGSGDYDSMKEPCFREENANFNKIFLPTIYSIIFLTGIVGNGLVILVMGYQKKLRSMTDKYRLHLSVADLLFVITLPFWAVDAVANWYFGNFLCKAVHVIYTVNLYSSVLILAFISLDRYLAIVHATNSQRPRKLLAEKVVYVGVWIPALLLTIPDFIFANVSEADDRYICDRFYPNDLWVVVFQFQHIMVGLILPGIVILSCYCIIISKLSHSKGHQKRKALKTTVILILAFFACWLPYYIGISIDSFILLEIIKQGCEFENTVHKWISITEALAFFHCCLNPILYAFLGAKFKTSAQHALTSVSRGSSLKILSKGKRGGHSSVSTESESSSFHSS

Row | pIC50 (CXCR4 (h); read-out: IC50, inhibition of control reference agonist response for CXCR4 (h)) | pKd (ETB (h)) | SMILES | IC50, inhibition of control reference agonist response for CXCR4 (h) (CXCR4 (h)) | IC50, inhibition of control reference agonist response for ETA (h) (ETA (h)) | pIC50 (ETB (h); read-out: IC50, inhibition of control reference agonist response for ETB (h)) | plasma ET-1 response: prolonged peak out to (ETBR; ET-1 ELISA) | biologic activity in vivo by plasma ET-1 (duration and amplitude of response) (ETBR; compared with non-deuterated BQ-788)
1 | – | – | [2H]C[C@@H]1CCC[C@H](C[2H])N1C(=O)N[C@@H](CC(C)(C)C)C(=O)N[C@H](Cc1cn(C(=O)OC)c2ccccc12)C(=O)N[C@H](CCCC)C(=O)O [BQ-788-B] | not calculable | not calculable | 7.02 | about 3 hours | enhanced duration and amplitude of response relative to the undeuterated form; also recorded: enhanced biological activity relative to BQ-788
2 | < 6.00 | 7.89 | CCCC[C@@H](NC(=O)[C@@H](Cc1cn(C(=O)OC)c2ccccc12)NC(=O)[C@H](CC(C)(C)C)NC(=O)N1[C@H](C)CCC[C@@H]1C)C(=O)O [BQ-788] | – | not calculable | – | – | –

Reference: patent US12077604B2, “Deuterated compounds, compositions, and methods for treating cancers associated with ETBR activation” (ENB Therapeutics Inc., priority 2018, dated 2024)
